Laboratory results taken from patent US20230133958A1, “COMPOUNDS USEFUL IN MODULATING EGFR AND PI3K” (Mekanistic Therapeutics LLC, priority 2021, published 2023).

Experiments:
Type in all cases: cell-based
SF-268 = assay: NCI COMPARE panel (SRB growth inhibition), SF-268; conditions: Homo sapiens; CNS Cancer, SF-268, 48 h
Method: (§1) The human tumor cell lines of the cancer screening panel are grown in RPMI 1640 medium containing 5% fetal bovine serum and 2 mM L-glutamine. For a typical screening experiment, cells are inoculated into 96 well microtiter plates in 100 µL at plating densities ranging from 5,000 to 40,000 cells/well depending on the doubling time of individual cell lines. After cell inoculation, the microtiter plates are incubated at 37° C., 5% CO2, 95% air and 100% relative humidity for 24 h prior to addition of experimental drugs.
(§2) After 24 h, two plates of each cell line are fixed in situ with TCA, to represent a measurement of the cell population for each cell line at the time of drug addition (Tz). Experimental drugs are solubilized in dimethyl sulfoxide at 400-fold the desired final maximum test concentration and stored frozen prior to use. […]
(§3) Following drug addition, the plates are incubated for an additional 48 h at 37° C., 5 % CO2, 95% air, and 100% relative humidity. […] Bound stain is subsequently solubilized with 10 mM trizma base, and the absorbance is read on an automated plate reader at a wavelength of 515 nm. […] Using the seven absorbance measurements [time zero, (Tz), control growth, (C), and test growth in the presence of drug at the five concentration levels (Ti)], the percentage growth is calculated at each of the drug concentrations levels. Percentage growth inhibition is calculated as: […]

SF-539 = assay: NCI COMPARE panel (SRB growth inhibition), SF-539; conditions: Homo sapiens; CNS Cancer, SF-539, 48 h
Method: as §1, §2, §3

HT29 = assay: NCI COMPARE panel (SRB growth inhibition), HT29; conditions: Homo sapiens, HT-29; Colon Cancer, HT29, 48 h
Method: as §1, §2, §3

SW-620 = assay: NCI COMPARE panel (SRB growth inhibition), SW-620; conditions: Homo sapiens; Colon Cancer, SW-620, 48 h
Method: as §1, §2, §3

K-562 = assay: NCI COMPARE panel (SRB growth inhibition), K-562; conditions: Homo sapiens, K562; Leukemia, K-562, 48 h
Method: as §1, §2, §3

SK-MEL-5 = assay: NCI COMPARE panel (SRB growth inhibition), SK-MEL-5; conditions: Homo sapiens; Melanoma, SK-MEL-5, 48 h
Method: as §1, §2, §3

UACC-257 = assay: NCI COMPARE panel (SRB growth inhibition), UACC-257; conditions: Homo sapiens; Melanoma, UACC-257, 48 h
Method: as §1, §2, §3

A549/ATCC = assay: NCI COMPARE panel (SRB growth inhibition), A549/ATCC; conditions: Homo sapiens, Non-Small Cell Lung Cancer, 48 h
Method: as §1, §2, §3

786-0 = assay: NCI COMPARE panel (SRB growth inhibition), 786-0; conditions: Homo sapiens; Renal Cancer, 786-0, 48 h
Method: as §1, §2, §3

CAKI-1 = assay: NCI COMPARE panel (SRB growth inhibition), CAKI-1; conditions: Homo sapiens; Renal Cancer, CAKI-1, 48 h
Method: as §1, §2, §3

Row | Structure (SMILES) | GI50 (SF-268) | GI50 (SF-539) | GI50 (HT29) | GI50 (SW-620) | GI50 (K-562) | GI50 (SK-MEL-5) | GI50 (UACC-257) | GI50 (A549/ATCC) | GI50 (786-0) | GI50 (CAKI-1)
1 | CS(=O)(=O)Nc1cc(-c2ccc3ncnc(Nc4cccc(Cl)c4F)c3c2)cnc1Cl [Compound 6, N-[2-chloro-5-[4-(3-chloro-2-fluoro-anilino)quinazolin-6-yl]-3-pyridyl] methanesulfonamide] | 125 to 250 nM | 125 to 250 nM | 125 to 250 nM | > 250 nM | > 250 nM | 125 to 250 nM | 125 to 250 nM | 125 to 250 nM | 125 to 250 nM | ≤ 75 nM
2 | CS(=O)(=O)Nc1cc(-c2ccc3ncc(C#N)c(Nc4cccc(Cl)c4F)c3c2)cnc1Cl [Compound 10, N-[2-chloro-5-[4-(3-chloro-2-fluoro-anilino)-3-cyano-6-quinolyl]-3-pyridyl]methanesulfonamide] | 75 to 125 nM | 125 to 250 nM | > 250 nM | ≤ 75 nM | 75 to 125 nM | ≤ 75 nM | > 250 nM | > 250 nM | > 250 nM | ≤ 75 nM
